# In patent US20110060044A1, “ALIPHATIC ACID-CONTAINING N-HALOGENATED AMINO ACID FORMULATIONS” (ALCON RESEARCH, LTD., priority 2007, published 2011):
# “Also recorded” adds a separate entry of the source.
# Experiments:
# C. albicans = assay: Antimicrobial activity (time-kill viability) evaluation with C. albicans; type: cell-based; settings: measured by viable cells per mL, Table 2 / FIG. 2
# Method: (§1) The antimicrobial activity of the formulations according to embodiments of the present invention were evaluated by a standard microbiological analysis. The results of this evaluation are summarized in Tables 1 and 2 below and are shown graphically in FIGS. 1 and 2. For the evaluation, bacterial and fungal isolates were grown overnight on appropriate agar media as source of fresh cells. A suspension of these fresh cells was prepared in saline at approximately 1×10^8 cfu/mL. These suspensions were added directly to the test agents (various solutions of sodium 2,2-dimethyl-N,N-dichlorotaurine and control solutions). The initial concentration of cells in the test agent solutions was approximately 1×10^6 cfu/mL. The exposure of microorganisms to the test agent was conducted at room temperature for up to 60 minutes. At selected times, an aliquot was withdrawn and diluted into phosphate buffered saline at 4° C. Viability was determined following serial dilution and filtration onto Milliflex cassettes.
# S. aureus = assay: Antimicrobial activity (time-kill viability) evaluation with S. aureus; type: cell-based; settings: measured by viable cells per mL, Table 1 / FIG. 1
# Method: as §1, with “The results of this evaluation are summarized in Tables 1 and 2 below and are shown graphically in FIGS. 1 and 2.” left out
compound,measurement,setting,value
"CC(C)(CS(=O)(=O)O)N(Cl)Cl [2,2-dimethyl-N,N-dichlorotaurine]",anti-infective (antimicrobial) activity when the formulation contained sodium acetate,C. albicans,dramatically improved; also recorded: increased
same,anti-infective (antimicrobial) activity when the formulation contained sodium acetate,S. aureus,dramatically improved; also recorded: increased
